Experimental data: paper PMC11984586, “A novel spider toxin as a selective antagonist of the Kv1 subfamily of voltage-gated potassium channels through gating modulation” (The Journal of Biological Chemistry, 2025)
Bridge positions count the residues as written; N and C are the ends. Peptide text beside a SMILES is read from it.

Tests used:
Format in all cases: cell-based
rKv1.4 = biological target: T1, rKv1.4 (Rattus norvegicus, UniProt P15385); test: Whole-cell patch clamp, Kv1.4 ionic current in CHO-K1 cells
T1 construct: expressed in transfected cells; host or cells: CHO-K1
Description: (§1) The cDNA of hKv1.1, hKv1.2, hKv1.3, rKv1.4, hKv1.5, mKv1.6, and hKv1.7 were subcloned into mammalian expression vectors pcDNA3.1 or pCMV-blank vectors, as well as other plasmids described previously ([35]). Channel mutants were generated by site-directed mutations. Briefly, the parental channel plasmid was amplified using a pair of oppositely directed primers harboring the designed mutation site, with KOD Fx (TOYOBO Co, Ltd). The resulting PCR mix was treated with FastDigest DpnI (Thermo Fisher Scientific) to remove the methylated template. Ten microliters of the digested product was then used to transform 100 μl E. coli DH5α competent cells. […]
(§2) CHO-K1 cells were selected for expressing Kv channels due to their lack of endogenous Kv channels, while HEK293 or ND7/23 cells were used for Nav and Cav channel expression. […] After 4 to 6 h transfection, cells were seeded onto poly-lysine–coated coverslips, and 24 to 36 h later, transfected cells were ready for patch-clamp analysis. […]
For Kv current recordings, the bath solution contained (in mM) the following: 140 NaCl, 5 KCl, 1 MgCl2, 2 CaCl2, 10 glucose, and 10 Hepes (pH 7.3, adjusted with NaOH), and the pipette solution contained (in mM) the following: 140 KCl, 2.5 MgCl2, 11 EGTA, and 10 Hepes (pH 7.3, adjusted with KOH). […] The steady-state fast inactivation of Kv1.3 was measured using a two-pulses protocol. […]

Kv1.2/Y266A = biological target: T2, Kv1.2/Y266A (Homo sapiens, UniProt P16389, Y266A); test: Whole-cell patch clamp, Tyr-to-Ala mutant homologous to Kv1.3 Y339; settings: +30 mV, mean ± SD, n = 4–6
T2 construct: expressed in transfected cells; host or cells: CHO-K1
Source text: Building on the identification of key amino acid residues in Kv1.3 channel that interact with MrVIII through alanine-scanning mutagenesis, we extended our analysis to explore these residues across other Kv1 subfamily channels. […] However, MrVIII retained substantial inhibitory potency on Kv1.2/Y266A mutant, albeit without fully blocking the channel current. […] The profound reduction in MrVIII's effect across homologous mutants supports the idea that it binds to a conserved region.
as §1, with “template.” for “template. Ten microliters of the digested product was then used to transform 100 μl E. coli DH5α competent cells.”
as §2

[1] = biological target: T3, Kv1.3/ET (Kv1.3/Q355 E_M358T) (Homo sapiens, UniProt P22001, M358T/Q355E); test: Whole-cell patch clamp, Kv1.3 double mutant; settings: +30 mV, mean ± SD, n = 3–5
T3 construct: expressed in transfected cells; host or cells: CHO-K1
Source text: In contrast, differences at positions 347, 355, and 358 between Kv1.3 and Kv1.1 prompted further analysis. To explore whether these discrepancies influence peptide-mediated inhibition, we substituted these residues in Kv1.3 with their homologous counterparts in Kv1.1 and assessed the MrVIII's inhibitory efficacy on these single-point mutants. […] To further investigate this, we introduced double adjacent mutations around Q355 and M358 in Kv1.3 to explore potential synergistic effects on MrVIII's inhibitory activity. […]
as §2
For Kv current recordings, the bath solution contained (in mM) the following: 140 NaCl, 5 KCl, 1 MgCl2, 2 CaCl2, 10 glucose, and 10 Hepes (pH 7.3, adjusted with NaOH), and the pipette solution contained (in mM) the following: 140 KCl, 2.5 MgCl2, 11 EGTA, and 10 Hepes (pH 7.3, adjusted with KOH). […] Whole cell conductance (G) at each depolarizing voltage (V) was determined using the equation: G = I/(V−Vrev), where I is the current amplitude, and Vrev is the reversal potential. […]

T1 sequence (P15385 whole entry): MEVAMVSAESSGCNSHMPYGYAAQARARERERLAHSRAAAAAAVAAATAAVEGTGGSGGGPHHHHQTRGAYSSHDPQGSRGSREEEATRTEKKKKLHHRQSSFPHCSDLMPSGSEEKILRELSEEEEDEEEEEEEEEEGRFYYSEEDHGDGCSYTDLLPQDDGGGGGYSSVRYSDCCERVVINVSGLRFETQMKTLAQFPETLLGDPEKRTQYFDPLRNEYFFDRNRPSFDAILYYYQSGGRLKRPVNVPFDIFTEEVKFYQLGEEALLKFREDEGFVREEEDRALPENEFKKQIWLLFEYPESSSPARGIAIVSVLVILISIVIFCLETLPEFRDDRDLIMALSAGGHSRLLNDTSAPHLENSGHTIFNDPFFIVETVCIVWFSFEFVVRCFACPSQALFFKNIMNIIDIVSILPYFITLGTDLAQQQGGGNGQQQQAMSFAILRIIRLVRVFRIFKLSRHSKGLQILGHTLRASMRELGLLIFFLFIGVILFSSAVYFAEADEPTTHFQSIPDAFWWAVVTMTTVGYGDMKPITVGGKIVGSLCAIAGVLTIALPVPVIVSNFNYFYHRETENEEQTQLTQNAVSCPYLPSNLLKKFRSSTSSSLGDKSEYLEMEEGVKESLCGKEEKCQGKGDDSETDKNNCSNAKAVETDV
T2 sequence (P16389 whole entry Y266A): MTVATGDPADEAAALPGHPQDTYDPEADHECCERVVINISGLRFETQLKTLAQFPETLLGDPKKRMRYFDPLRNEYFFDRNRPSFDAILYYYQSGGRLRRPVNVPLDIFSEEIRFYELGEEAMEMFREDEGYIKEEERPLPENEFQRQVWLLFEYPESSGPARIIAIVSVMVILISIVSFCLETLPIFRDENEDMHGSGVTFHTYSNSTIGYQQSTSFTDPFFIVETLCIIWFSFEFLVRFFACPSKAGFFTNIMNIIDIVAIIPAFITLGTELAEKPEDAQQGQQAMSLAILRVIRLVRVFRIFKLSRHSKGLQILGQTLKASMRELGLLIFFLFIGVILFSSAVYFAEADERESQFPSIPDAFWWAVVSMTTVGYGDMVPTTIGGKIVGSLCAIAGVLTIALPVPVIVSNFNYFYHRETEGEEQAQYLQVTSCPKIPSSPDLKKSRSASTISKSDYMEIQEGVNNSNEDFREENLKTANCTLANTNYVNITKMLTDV
T3 sequence (P22001 whole entry Q355E/M358T): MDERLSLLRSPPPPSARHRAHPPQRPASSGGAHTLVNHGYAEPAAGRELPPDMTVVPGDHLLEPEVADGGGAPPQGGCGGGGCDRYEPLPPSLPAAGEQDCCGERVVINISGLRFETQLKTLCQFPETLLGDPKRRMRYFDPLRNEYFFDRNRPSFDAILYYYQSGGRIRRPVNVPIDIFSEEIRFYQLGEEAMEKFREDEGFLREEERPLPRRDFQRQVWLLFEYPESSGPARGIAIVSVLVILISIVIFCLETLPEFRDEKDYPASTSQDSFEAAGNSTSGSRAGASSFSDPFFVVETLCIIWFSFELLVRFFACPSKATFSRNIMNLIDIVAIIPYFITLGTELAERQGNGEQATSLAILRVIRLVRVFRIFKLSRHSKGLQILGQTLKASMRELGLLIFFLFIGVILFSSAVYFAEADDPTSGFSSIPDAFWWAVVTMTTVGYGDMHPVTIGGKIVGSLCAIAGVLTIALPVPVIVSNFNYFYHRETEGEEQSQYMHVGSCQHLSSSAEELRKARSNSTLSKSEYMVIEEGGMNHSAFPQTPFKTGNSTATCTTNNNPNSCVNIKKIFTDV

Question: Which IC50 (rKv1.4; current measured at 50 ms of a 500 ms depolarization to +30 mV, mean ± SD, n = 4–7, SD) does the source give for `CC[C@H](C)[C@@H]1NC(=O)[C@H](Cc2ccc(O)cc2)NC(=O)[C@H](CCC(N)=O)NC(=O)[C@@H]2CCCN2C(=O)[C@@H]2CSSC[C@H](NC(=O)[C@H](C)NC(=O)[C@H](CO)NC(=O)[C@H](CCC(=O)O)NC(=O)[C@H](CCC(=O)O)NC(=O)[C@@H](N)[C@@H](C)O)C(=O)NCC(=O)NCC(=O)N[C@@H](Cc3ccccc3)C(=O)N[C@@H](CC(N)=O)C(=O)N[C@@H](C)C(=O)N[C@@H](CCCNC(=N)N)C(=O)N[C@H]3CSSC[C@H](NC1=O)C(=O)N[C@@H](CCCCN)C(=O)NCC(=O)N[C@@H](Cc1c[nH]c4ccccc14)C(=O)N[C@@H](CCCNC(=N)N)C(=O)N[C@@H]([C@@H](C)O)C(=O)N[C@@H](CCCCN)C(=O)N[C@@H](CCCNC(=N)N)C(=O)N[C@H](C(=O)N[C@@H](CC(C)C)C(=O)N[C@@H](CC(N)=O)C(=O)N1CCC[C@H]1C(=O)O)CSSC[C@H](NC(=O)[C@H](CCCCN)NC(=O)[C@H](Cc1c[nH]cn1)NC(=O)[C@H](CC(C)C)NC(=O)[C@@H]1CCCN1C3=O)C(=O)N2` [MrVIII] (H-TEESACGGFNARCPLHKCCPQYICKGWRTKRCLNP-OH; disulfide 6-19, 13-24, 18-32; N-terminus and C-terminus assumed) here?
Answer: 62.7 ± 56.9 nM

Question: And the “enhancement of the 495 ms current of Kv1.4” value (rKv1.4; in the presence of MrVIII (10 μM saturating), +30 mV, 495 ms)?
Answer: 3.9 fold

Question: And the IC50 (Kv1.2/Y266A; current at 50 ms)?
Answer: 418 ± 41.2 nM

Question: And the “inhi%(495 ms), Kv1.2/Y266A current” value (Kv1.2/Y266A; current at 495 ms)?
Answer: 36.9 ± 14.1%

Question: What about the IC50 ([1]; current at 50 ms) of the same molecule?
Answer: 122 ± 24.5 nM

Question: What about the “inhi%(495 ms), Kv1.3/ET current” value ([1]; current at 495 ms) of the same molecule?
Answer: −35.4 ± 20.7%
